Laboratory results taken from patent publication US20060276520A1 (priority 2002, published 2006).
Several values for one entry are separate records, joined by “and”; a condition that tells them apart may be missing. Equal values may be shown once. Read-outs that look alike come from different tables or passages of the source.

Legend:
Assay in all cases: biochemical
APC2/APC11 [1] = molecular target: T1, APC2/APC11 (Homo sapiens, UniProt Q9NYG5+Q9UJX6)
APC2/APC11 [2] = molecular target: T1, APC2/APC11; remark: listed apart in the source
ROC1/CUL1 = ROC1/CUL1 (Homo sapiens, UniProt P62877+Q13616)
ROC1/CUL2 = ROC1/CUL2 (Homo sapiens, UniProt P62877+Q13617)
ROC2/CUL5 = molecular target: T2, ROC2/CUL5 (Homo sapiens, UniProt Q93034+Q9UBF6)
T2 sequence (Q9UBF6 1-113): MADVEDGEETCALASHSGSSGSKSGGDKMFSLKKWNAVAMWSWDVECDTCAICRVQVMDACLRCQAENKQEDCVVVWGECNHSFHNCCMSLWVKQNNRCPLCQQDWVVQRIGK
T2 sequence (Q93034 1-780): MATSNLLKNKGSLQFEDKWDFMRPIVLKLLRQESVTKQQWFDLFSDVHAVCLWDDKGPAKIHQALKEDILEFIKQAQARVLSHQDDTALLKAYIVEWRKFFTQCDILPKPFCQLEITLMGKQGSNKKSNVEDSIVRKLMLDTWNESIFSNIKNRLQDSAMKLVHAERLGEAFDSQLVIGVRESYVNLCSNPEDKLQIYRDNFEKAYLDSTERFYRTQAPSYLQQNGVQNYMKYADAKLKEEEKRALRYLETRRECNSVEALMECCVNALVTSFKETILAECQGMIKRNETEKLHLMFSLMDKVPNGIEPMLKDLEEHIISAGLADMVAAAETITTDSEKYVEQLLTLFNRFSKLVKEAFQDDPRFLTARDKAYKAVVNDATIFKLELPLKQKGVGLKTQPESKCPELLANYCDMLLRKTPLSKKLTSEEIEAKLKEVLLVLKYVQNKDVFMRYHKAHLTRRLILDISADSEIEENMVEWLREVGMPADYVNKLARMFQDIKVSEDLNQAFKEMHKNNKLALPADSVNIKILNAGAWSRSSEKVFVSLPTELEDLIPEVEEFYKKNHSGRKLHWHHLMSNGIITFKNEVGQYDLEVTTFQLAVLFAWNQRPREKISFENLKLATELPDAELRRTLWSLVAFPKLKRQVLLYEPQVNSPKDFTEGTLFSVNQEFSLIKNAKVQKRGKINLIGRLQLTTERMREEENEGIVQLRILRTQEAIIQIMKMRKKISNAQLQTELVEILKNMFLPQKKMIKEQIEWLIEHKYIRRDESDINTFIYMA

MDM2/P53 = MDM2/P53 (Homo sapiens, UniProt Q00987)
MDM2/P53, sequence (Q00987 whole entry): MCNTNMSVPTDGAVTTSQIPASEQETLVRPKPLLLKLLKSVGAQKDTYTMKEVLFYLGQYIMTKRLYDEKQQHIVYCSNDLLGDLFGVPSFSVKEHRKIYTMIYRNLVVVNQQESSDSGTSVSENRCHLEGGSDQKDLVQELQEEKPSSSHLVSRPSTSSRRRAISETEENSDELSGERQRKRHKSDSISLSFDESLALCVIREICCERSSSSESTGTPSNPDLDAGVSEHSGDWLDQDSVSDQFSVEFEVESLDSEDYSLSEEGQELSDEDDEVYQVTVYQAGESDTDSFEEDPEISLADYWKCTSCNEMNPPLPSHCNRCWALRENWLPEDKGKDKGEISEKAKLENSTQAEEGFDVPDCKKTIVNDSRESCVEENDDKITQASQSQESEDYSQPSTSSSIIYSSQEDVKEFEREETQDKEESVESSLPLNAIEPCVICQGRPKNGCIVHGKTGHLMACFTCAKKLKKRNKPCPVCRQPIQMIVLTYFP

T1 sequence (Q9UJX6 whole entry): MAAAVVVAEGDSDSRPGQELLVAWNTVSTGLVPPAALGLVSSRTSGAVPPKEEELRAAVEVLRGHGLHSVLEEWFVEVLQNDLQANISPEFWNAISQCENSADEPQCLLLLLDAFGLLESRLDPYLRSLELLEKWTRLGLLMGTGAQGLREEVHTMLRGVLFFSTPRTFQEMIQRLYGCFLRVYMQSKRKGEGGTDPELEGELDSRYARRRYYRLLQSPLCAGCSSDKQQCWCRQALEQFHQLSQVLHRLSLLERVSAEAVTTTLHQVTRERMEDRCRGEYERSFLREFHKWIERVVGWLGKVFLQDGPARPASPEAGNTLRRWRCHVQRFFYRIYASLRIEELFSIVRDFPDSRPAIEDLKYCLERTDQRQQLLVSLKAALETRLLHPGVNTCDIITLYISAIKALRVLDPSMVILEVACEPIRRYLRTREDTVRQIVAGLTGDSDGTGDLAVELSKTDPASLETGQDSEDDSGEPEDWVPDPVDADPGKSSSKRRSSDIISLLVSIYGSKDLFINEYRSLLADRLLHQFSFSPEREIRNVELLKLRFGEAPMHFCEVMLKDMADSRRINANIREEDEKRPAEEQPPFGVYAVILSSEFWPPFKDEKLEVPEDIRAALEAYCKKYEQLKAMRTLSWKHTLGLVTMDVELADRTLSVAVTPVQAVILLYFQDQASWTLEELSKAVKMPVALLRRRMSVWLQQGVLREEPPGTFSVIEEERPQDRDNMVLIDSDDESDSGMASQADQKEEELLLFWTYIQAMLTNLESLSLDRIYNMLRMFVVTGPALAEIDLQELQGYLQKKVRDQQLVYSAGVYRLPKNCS
T1 sequence (Q9NYG5 whole entry): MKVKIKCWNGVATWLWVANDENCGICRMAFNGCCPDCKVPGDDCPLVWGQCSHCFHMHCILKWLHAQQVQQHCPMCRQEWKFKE
ROC1/CUL2, sequence (P62877 whole entry): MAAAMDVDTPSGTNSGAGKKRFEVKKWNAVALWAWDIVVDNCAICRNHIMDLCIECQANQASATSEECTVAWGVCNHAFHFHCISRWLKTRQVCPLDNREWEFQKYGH
ROC1/CUL2, sequence (Q13617 whole entry): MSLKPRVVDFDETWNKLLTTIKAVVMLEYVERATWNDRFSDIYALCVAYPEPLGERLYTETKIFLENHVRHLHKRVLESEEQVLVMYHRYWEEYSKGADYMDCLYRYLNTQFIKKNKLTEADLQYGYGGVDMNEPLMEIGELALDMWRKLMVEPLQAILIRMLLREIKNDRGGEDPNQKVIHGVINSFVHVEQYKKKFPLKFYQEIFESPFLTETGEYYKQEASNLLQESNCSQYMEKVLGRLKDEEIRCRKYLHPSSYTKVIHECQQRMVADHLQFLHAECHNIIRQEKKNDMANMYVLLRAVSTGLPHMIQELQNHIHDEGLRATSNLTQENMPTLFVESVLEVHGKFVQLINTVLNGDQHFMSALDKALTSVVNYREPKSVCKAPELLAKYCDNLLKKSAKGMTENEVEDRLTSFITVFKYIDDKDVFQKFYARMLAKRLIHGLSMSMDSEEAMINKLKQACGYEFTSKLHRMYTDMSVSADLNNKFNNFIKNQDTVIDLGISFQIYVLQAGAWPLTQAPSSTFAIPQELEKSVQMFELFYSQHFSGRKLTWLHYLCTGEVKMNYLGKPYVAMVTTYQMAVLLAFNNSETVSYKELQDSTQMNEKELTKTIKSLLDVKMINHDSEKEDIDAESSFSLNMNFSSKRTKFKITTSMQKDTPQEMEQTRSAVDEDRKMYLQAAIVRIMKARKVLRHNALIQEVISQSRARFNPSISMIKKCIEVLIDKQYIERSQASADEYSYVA
ROC1/CUL1, sequence (P62877 whole entry): as the sequence (P62877 whole entry) above
ROC1/CUL1, sequence (Q13616 whole entry): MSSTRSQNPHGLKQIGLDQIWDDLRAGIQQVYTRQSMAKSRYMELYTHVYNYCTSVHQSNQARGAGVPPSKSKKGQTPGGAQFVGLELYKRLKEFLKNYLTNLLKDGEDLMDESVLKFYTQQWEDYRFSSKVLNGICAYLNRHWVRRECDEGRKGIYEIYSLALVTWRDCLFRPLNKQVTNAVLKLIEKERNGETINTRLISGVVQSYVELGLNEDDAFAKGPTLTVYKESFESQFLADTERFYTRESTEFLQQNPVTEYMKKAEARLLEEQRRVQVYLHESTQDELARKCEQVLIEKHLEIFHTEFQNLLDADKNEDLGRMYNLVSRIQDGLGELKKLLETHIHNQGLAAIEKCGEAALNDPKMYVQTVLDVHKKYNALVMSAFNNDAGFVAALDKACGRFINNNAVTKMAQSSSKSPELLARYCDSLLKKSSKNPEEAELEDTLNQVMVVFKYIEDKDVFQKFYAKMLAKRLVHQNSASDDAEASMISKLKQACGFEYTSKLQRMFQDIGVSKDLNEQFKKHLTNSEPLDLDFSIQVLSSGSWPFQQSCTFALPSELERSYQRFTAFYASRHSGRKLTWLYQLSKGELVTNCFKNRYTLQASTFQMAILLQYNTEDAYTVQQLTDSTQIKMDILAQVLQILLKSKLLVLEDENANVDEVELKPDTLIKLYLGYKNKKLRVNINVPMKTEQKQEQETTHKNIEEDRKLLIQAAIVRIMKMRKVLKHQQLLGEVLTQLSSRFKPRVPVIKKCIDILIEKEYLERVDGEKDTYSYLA

SMILES | IC50 (APC2/APC11 [1]) [nM] | IC50 (APC2/APC11 [2]) | IC50 (ROC1/CUL1) [nM] | IC50 (ROC1/CUL2) [nM] | IC50 (ROC2/CUL5) [nM] | IC50 (MDM2/P53) [nM]
COc1ccc(-c2ccc(/C=C3/SC(=S)NC3=O)o2)cc1Cl [Compound 172, (5E)-5-{[5-(3-chloro-4-methoxyphenyl)-2-furyl]methylene}-2-thioxo-1,3-thiazolidin-4-one] | 2000 | 2000 nM |  |  |  | 
C=CCN1C(=O)C(Cc2ccc(-c3ccccc3Cl)o2)SC1=S (stereo not shown) [Compound 304, 3-allyl-5-{[5-(2-chlorophenyl)-2-furyl]methyl}-2-thioxo-1,3-thiazolidin-4-one] |  |  | 1000 | 1000 | 800 | 
C=CCN1C(=O)/C(=C/c2ccc(-c3cccc(Cl)c3)o2)SC1=S [Compound 284, (5Z)-3-allyl-5-{[5-(3-chlorophenyl)-2-furyl]methylene}-2-thioxo-1,3-thiazolidin-4-one] |  |  | 800 | 800 | 200 | 
O=C1/C(=C\c2ccc(-c3cccc(C(F)(F)F)c3)o2)SC(=S)N1Cc1ccco1 [Compound 55, (5E)-3-(2-furylmethyl)-2-thioxo-5-({5-[3-(trifluoromethyl)phenyl]-2-furyl}methylene)-1,3-thiazolidin-4-one] |  | 4000 nM and 10000 nM |  |  |  | 
COc1ccc(N2C(=O)/C(=C\c3ccc(-c4ccc(Br)cc4)o3)SC2=S)cc1 [Compound 96, (5E)-5-{[5-(4-bromophenyl)-2-furyl]methylene}-3-(4-methoxyphenyl)-2-thioxo-1,3-thiazolidin-4-one] | 10000 |  |  |  |  | 560
O=C1/C(=C\c2ccc(-c3cccc(C(F)(F)F)c3)o2)SC(=S)N1Cc1ccccc1 [Compound 54, (5E)-3-benzyl-2-thioxo-5-({5-[3-(trifluoromethyl)phenyl]-2-furyl}methylene)-1,3-thiazolidin-4-one] | 35 |  |  |  |  | 74
